Experimental data published in patent US10709745B2, “Tropic cell based virotherapy for the treatment of cancer” (priority 2013, dated 2020).

Assays:
GBM39 = assay: Glioma cell viability (MTT) under XRT-TMZ with or without CRAd-S-pk7; format: cell-based; settings: Homo sapiens, treated with XRT (2 Gy) simultaneously
Protocol: FIGS. 44A and 44B show the optimization of combination therapy in vitro according to one embodiment. (FIG. 44A): Cytotoxicity of U251 and U87 glioma cell lines and GBM39 patient-derived cell line treated with Rx-OV or OV-Rx. Left: The percentage of viability of glioma cells measured by 3-(4,5-dimethylthiazol-2-yl)-2,5-diphenyltetrazolium bromide 96 hours after treatment. Right: Representative light microscope pictures of U87 glioma cell viability (magnification, ×10). (FIG. 44B): Percentage of apoptotic GBM43 cells at 48 hours after treatment with Rx-OV or OV-Rx treatment protocols as measured by the expression of active caspase-3-positive tumor cells by FACS (bottom). […]
A green fluorescent protein (GFP) expressing HB1.F3-CD cell line was generated as described elsewhere (Ahmed et al. 2011a). […] Following lysate preparation, the mean fluorescence intensity (MFI) was estimated for each group of cocultured cells using the GloMax 20/20 Luminometer (Promega). […] U251, U87, and GBM39 cell viability was determined using 3-(4,5-dimethylthiazol-2-yl)-2,5-diphenyltetrazolium bromide (MTT) cell proliferation kit (Roche Diagnostics, Mannheim, Germany, http://www.roche-applied-science.com). The viability was subsequently determined by MTT as described by the manufacturer's protocol. Cell viability was expressed as the percentage of cells alive compared with the dimethyl sulfoxide-treated control. […]

[1] = human, in vivo; cited from earlier work
NSCs (HB1.F3-CD) = assay: CRAd-S-pk7 replication in NSCs treated with XRT-TMZ (E1A qPCR, titer); format: cell-based, human; settings: day 4; TMZ 100 µM
Protocol: FIGS. 41A, 41B and 41C show evaluation of CRAd-Survivin-pk7 (CRAd-S-pk7) replication in neural stem cells (NSCs) treated with XRT-TMZ according to one embodiment. Viral replication of CRAd-S-pk7 was measured by quantitative real-time polymerase chain reaction and presented as a number of viral E1A copies per nanogram of DNA from infected NSCs. (FIG. 41A, 41B): Viral replication was evaluated daily up to 96 hours after treatment with 0, 10, 50, or 100 µM TMZ (FIG. 41A) and 0, 2, or 4 Gy of XRT (FIG. 41B). (FIG. 41C): CRAd-S-pk7 viral titer levels 96 hours after XRT-TMZ treatment of infected NSCs. […] Abbreviations: DMSO, dimethyl sulfoxide; IU, infectious units; TMZ, temozolomide; XRT, radiation therapy.
To detect the level of viral replication, NSCs were infected with 50 IU of CRAd-S-pk7 and treated with XRT-TMZ. […] Adenoviral E1A gene expression was quantified via qRTPCR using iQ SYBR Green supermix (Bio-Rad, Hercules, Calif., http://www.bio-rad.com), using primers and protocol previously described (Sonabend et al. 2009). The quantification of infectious viral progeny of NSCs was conducted using the Adeno-X rapid titer kit protocol (Clontech, Mountain View, Calif., http://www.clontech.com) as described elsewhere (Thaci et al. 2012). The titration unit (IU/ml) values quantified through this protocol are similar to plaque-forming units. […]

## Cn1nnc2c(C(N)=O)ncn2c1=O [TMZ, temozolomide]
GBM39
  IC50: 50 µM
[1]
  intratumoral concentration (likely range): 5 to 50 µM
  peak concentration in patient's blood: 50 µmol/L
  peak concentration in the cerebral spinal fluid: 5 µmol/L
NSCs (HB1.F3-CD)
  decrease in E1A copies per nanogram of DNA: 3 fold
